Values of other authors in patent US12357678B2, “Cancer stem cell targeted cancer vaccines” (priority 2012, dated 2025).

Columns and labels:
[1] = tested on: IL-13Ra2 positive, HLA-A2 positive glioma cells
[2] = tested on: HLA-A2; settings: mutant vs wild type IL-13Rα2345-353
[3] = tested on: T cells; settings: mutant vs wild type IL-13Rα2345-353
[4] = tested on: cancer cells

WLPFGFILI (Amino acid residues 345-353 of IL-13 Receptor alpha; listed as Homo sapiens) [IL-13Rα2345-353, Amino acid residues 345-353 of Interleukin-13 Receptor alpha]
lysis of glioma cells by CTL lines generated by stimulation of CD8+ cells with the peptide ([1]; IL-13Ra2 positive, HLA-A2 positive glioma cells, antigen-specific): efficiently lysed

ALPFGFILV (Amino acid residues 345-353 of IL-13 Receptor alpha mutation of W to A at position 345 and I to V at position 353) [IL-13Rα2345-353:1A9V, IL-13Rα2 345-353 with mutation of W to A at position 345 and I to V at position 353]
affinity for HLA-A2 relative to wild type peptide [2]: increased the affinity for HLA-A2
killing of glioma cells by T cells stimulated with the peptide, relative to wild type ([1]; T cells stimulated with mutant vs wild type peptide): more effective at killing glioma cells
T cell response (immunogenicity) relative to wild type peptide [3]: more robust T cell response

ELMLG EFLKL (ELMLGEFLKL; Amino acid residues 95-104 of Survivin with a methionine substitution at position 3) [SEQ ID NO:9, Survivin 95-104 with a methionine substitution at position 3]
activation of T cells cytotoxic to cancer cells [4]: able to activate T cells that were cytotoxic to cancer cells
immunogenicity of survivin analog peptide [4]: immunogenic
